Tests used:
Assay type in all cases: physicochemical
[1] = Effect of additives on HA viscosity at 60° C., HA/TA (Example 16); conditions: HA solution
Description: Then 344.3 mg of USP grade Triamcinolone Acetonide (TA) was mixed with 206.6 mL of dissolved HA in a sterile 250 mL Nalgene bottle. […] No additives were added to the control sample. For each large sample, 2±0.2 mL aliquots were placed in a sterile 4 mL glass vial which was then sealed with septum and aluminum cap. All these aliquoted samples, except the 0 hour samples, were placed in an oven set at 60° C. With the exception of the Day 0 samples, at each time point (Day 1, Day 3 and Day 7), 3 of the samples were removed from the oven and allowed to cool to room temperature. […] The percent retention of the HA viscosity was determined by the ratio of the viscosity (average of the 3 samples) on the specified day to that on Day 0.

[2] = Effect of sucrose on HA viscosity at 55° C. (Example 3); conditions: HA solution
Description: 6.9 g of HA (Lifecore, 888 KDa) was dissolved in 881 mL of 0.9% NaCl overnight. The dissolved HA was sterile filtered with 0.2 um filter (Millipore, Opticap 4″). 3.97 mL of 1 M Sodium Phosphate, pH 6.71 was added to the HA solution. Then 135.3 mg of USP grade Triamcinolone acetonide (TA) was mixed with 81.2 mL of dissolved HA in a sterile 250 mL Nalgene bottle. […] Each mixture was mixed for 1 hour. No additives were added to the control sample. For each large sample, 2±0.2 mL aliquots were placed in a sterile 4 mL glass vial which was then sealed with septum and aluminum cap. All these aliquoted samples, except the 0 hour samples, were placed in an oven set at 55° C. With the exception of the Day 0 samples, at each time point, 3 of the samples were removed from the oven and allowed to cool to room temperature. The viscosity of each sample was measured using AR550 Rheometer (TA Instrument) with 40 mm 2° steel cone at 22° C. with a 3 min time sweep. The percent retention of the HA viscosity was determined by the ratio of the viscosity (average of the 3 samples) on the specified day to that on Day 0. The stabilization ratio at Day 6 is the ratio of the percent retention of HA viscosity with the specific additive to the percent retention of HA viscosity of the sample with no additive.

[3] = Effect of sucrose on HA viscosity at 80° C. (Example 1B); conditions: HA solution
Description: 6.9 g of hyaluronic acid, HA (Lifecore, 888 KDa) was dissolved in 881 mL of 0.9% NaCl overnight. The dissolved HA was sterile filtered with 0.2 μm filter (Millipore, Opticap 4″). 3.97 mL of 1 M sodium phosphate, pH 6.71 was added to the HA solution. Then 372 mg of USP grade triamcinolone acetonide (TA) was mixed with 223.2 mL of dissolved HA in a sterile 250 mL Nalgene bottle. […] Each mixture was mixed for 1 hour. No additives were added to the control sample. For each large sample, 2±0.2 mL aliquots were placed in a sterile 4 mL glass vial which was then sealed with septum and aluminum cap. All these aliquoted samples, except the 0 hour samples, were placed in an oven set at 80° C. With the exception of the 0 hour samples, at each time point, 3 of the samples were removed from the oven and allowed to cool to room temperature. The viscosity of each sample was measured using AR550 Rheometer (TA Instrument) with 40 mm 2° steel cone at 22° C. with a 3 min time sweep. The percent retention of the HA viscosity was determined by the ratio of the viscosity (average of the 3 samples) on the specified day to that on 0 hour. The stabilization ratio at 30 hours is the ratio of the percent retention of HA viscosity with the specific additive to the percent retention of HA viscosity of the sample with no additive.

[4] = Effect of additives on HA viscosity at 60° C., HA/TA (Example 17); conditions: HA solution
Description: 3.92 g of HA (Shiseido, IV=2 m^3/kg) was dissolved in 500 mL of 0.9% NaCl overnight. The dissolved HA was sterile filtered with 0.2 um filter (Millipore, Opticap 4″). 2.16 mL of 1 M Sodium Phosphate, pH 6.71 was added to the HA solution. Then 344.3 mg of USP grade Triamcinolone Acetonide (TA) was mixed with 206.6 mL of dissolved HA in a sterile 250 mL Nalgene bottle. […] No additives were added to the control sample. For each large sample, 2±0.2 mL aliquots were placed in a sterile 4 mL glass vial which was then sealed with septum and aluminum cap. All these aliquoted samples, except the 0 hour samples, were placed in an oven set at 60° C. With the exception of the Day 0 samples, at each time point (Day 1, Day 3 and Day 6), 3 of the samples were removed from the oven and allowed to cool to room temperature. The viscosity of each sample was measured using AR550 Rheometer (TA Instrument) with 40 mm 2° steel cone at 22° C. with a 3 min time sweep. The percent retention of the HA viscosity was determined by the ratio of the viscosity (average of the 3 samples) on the specified day to that on Day 0. The stabilization ratio at Day 6 is the ratio of the percent retention of HA viscosity with the specific additive to the percent retention of HA viscosity of the sample with no additive.

[5] = Effect of sucrose on HA viscosity at 40° C. (Example 4); conditions: HA solution
Description: 6.9 g of HA (Lifecore, 888 KDa) was dissolved in 881 mL of 0.9% NaCl overnight. The dissolved HA was sterile filtered with 0.2 μm filter (Millipore, Opticap 4″). 3.97 mL of 1 M sodium phosphate, pH 6.71 was added to the HA solution. Then 372 mg of USP grade triamcinolone acetonide (TA) was mixed with 223.2 mL of dissolved HA in a sterile 250 mL Nalgene bottle. […] Each mixture was mixed for 1 hour. No additives were added to the control sample. For each large sample, 2±0.2 mL aliquots were placed in a sterile 4 mL glass vial which was then sealed with septum and aluminum cap. All these aliquoted samples, except the Week 0 samples, were placed in an oven set at 40° C. With the exception of the Day 0 samples, at each time point, 3 of the samples were removed from the oven and allowed to cool to room temperature. The viscosity of each sample was measured using AR550 Rheometer (TA Instrument) with 40 mm 2° steel cone at 22° C. with a 3 min time sweep. The percent retention of the HA viscosity was determined by the ratio of the viscosity (average of the 3 samples) on the specified day to that on Week 0. The stabilization ratio at Week 6 is the ratio of the percent retention of HA viscosity with the specific additive to the percent retention of HA viscosity of the sample with no additive.

[6] = Effect of sucrose on HA viscosity at 60° C. (Example 2); conditions: HA solution
Description: 6.9 g of HA (Lifecore, 888 KDa) was dissolved in 881 mL of 0.9% NaCl overnight. The dissolved HA was sterile filtered with 0.2 μm filter (Millipore, Opticap 4″). 3.97 mL of 1 M Sodium Phosphate, pH 6.71 was added to the HA solution. Then 372 mg of USP grade triamcinolone acetonide (TA) was mixed with 223.2 mL of dissolved HA in a sterile 250 mL Nalgene bottle. […] Each mixture was mixed for 1 hour. No additives were added to the control sample. For each large sample, 2±0.2 mL aliquots were placed in a sterile 4 mL glass vial which was then sealed with septum and aluminum cap. All these aliquoted samples, except the 0 hour samples, were placed in an oven set at 60° C. With the exception of the Day 0 samples, at each time point, 3 of the samples were removed from the oven and allowed to cool to room temperature. The viscosity of each sample was measured using AR550 Rheometer (TA Instrument) with 40 mm 2° steel cone at 22° C. with a 3 min time sweep. The percent retention of the HA viscosity was determined by the ratio of the viscosity (average of the 3 samples) on the specified day to that on Day 0. The stabilization ratio at Day 6 is the ratio of the percent retention of HA viscosity with the specific additive to the percent retention of HA viscosity of the sample with no additive.

[7] = Effect of sucrose on HA (730) viscosity at 55° C. (Example 11); conditions: HA (730 KDa) solution
Description: 4.7 g of HA (Lifecore, 730 KDa) was dissolved in 600 mL of 0.9% NaCl overnight. The dissolved HA was sterile filtered with 0.2 um filter (Millipore, Opticap 4″). 0.86 mL of 1 M Sodium Phosphate, pH 6.71 was added to 171.8 mL of the HA solution. Then 248.2 mg of USP grade Triamcinolone acetonide (TA) was mixed with 148.9 mL of dissolved HA in a sterile 250 mL Nalgene bottle. […] Each mixture was mixed for 1 hour. No additives were added to the control sample. For each large sample, 2±0.2 mL aliquots were placed in a sterile 4 mL glass vial which was then sealed with septum and aluminum cap. All these aliquoted samples, except the 0 hour samples, were placed in an oven set at 55° C. With the exception of the 0 hour samples, at each time point (Day 1, Day 3 and Day 7), 3 of the samples were removed from the oven and allowed to cool to room temperature. The viscosity of each sample was measured using AR550 Rheometer (TA Instrument) with 40 mm 2° steel cone at 22° C. with a 3 min time sweep. The percent retention of the HA viscosity was determined by the ratio of the viscosity (average of the 3 samples) on the specified day to that on Day 0.

[8] = Specific viscosity retention of crosslinked HA hydrogel/HA solution formulation with and without TA, stored at 25° C. (Example 1A)
[9] = Effect of sucrose on HA (880) viscosity at 55° C. (Example 10); conditions: HA (880 KDa) solution
Description: 4.7 g of HA (Lifecore, 880 KDa) was dissolved in 600 mL of 0.9% NaCl overnight. The dissolved HA was sterile filtered with 0.2 um filter (Millipore, Opticap 4″). 0.84 mL of 1 M Sodium Phosphate, pH 6.71 was added to 167.51 mL of the filtered HA solution. Then 248.4 mg of USP grade Triamcinolone acetonide (TA) was mixed with 144.2 mL of dissolved HA in a sterile 250 mL Nalgene bottle. […] Each mixture was mixed for 1 hour. No additives were added to the control sample. For each large sample, 2±0.2 mL aliquots were placed in a sterile 4 mL glass vial which was then sealed with septum and aluminum cap. All these aliquoted samples, except the 0 hour samples, were placed in an oven set at 55° C. With the exception of the 0 hour samples, at each time point (Day 1, Day 3 and Day 7), 3 of the samples were removed from the oven and allowed to cool to room temperature. The viscosity of each sample was measured using AR550 Rheometer (TA Instrument) with 40 mm 2° steel cone at 22° C. with a 3 min time sweep. The percent retention of the HA viscosity was determined by the ratio of the viscosity (average of the 3 samples) on the specified day to that on Day 0.

[10] = Effect of additives on HA viscosity at 60° C., HA/triamcinolone hexacetonide (Example 18); conditions: HA solution
Description: 19.6 g of HA (Shiseido, IV=2 m^3/kg) was dissolved in 2.5 L of 0.9% NaCl overnight. The dissolved HA was sterile filtered with 0.2 um filter (Millipore, Opticap 4″). 1.15 mL of 1 M Sodium Phosphate, pH 6.71 was added to 228.9 mL of the HA solution. Then 334.9 mg of USP grade Triamcinolone hexacetonide(TH) was mixed with 200.95 mL of dissolved HA in a sterile 250 mL Nalgene bottle. […] Each mixture was mixed for 1 hour. No additives were added to the control sample. For each large sample, 2±0.2 mL aliquots were placed in a sterile 4 mL glass vial which was then sealed with septum and aluminum cap. All these aliquoted samples, except the Day 0 samples, were placed in an oven set at 60° C. With the exception of the Day 0 samples, at each time point, 3 of the samples were removed from the oven and allowed to cool to room temperature. The viscosity of each sample was measured using AR550 Rheometer (TA Instrument) with 40 mm 2° steel cone at 22° C. with a 3 min time sweep. The percent retention of the HA viscosity was determined by the ratio of the viscosity (average of the 3 samples) on the specified day to that on Day 0. The stabilization ratio at Day 6 is the ratio of the percent retention of HA viscosity with the specific additive to the percent retention of HA viscosity of the sample with no additive.

CC1(C)O[C@@H]2C[C@H]3[C@@H]4CCC5=CC(=O)C=C[C@]5(C)[C@@]4(F)[C@@H](O)C[C@]3(C)[C@]2(C(=O)CO)O1 [TA, triamcinolone acetonide]
effect of presence of corticosteroid on HA viscosity vs HA without it (in words) [1]: increased degradation of the HA
effect of presence of corticosteroid on HA viscosity vs HA without it (in words) [2]: increased degradation of the HA
effect of presence of corticosteroid on HA viscosity vs HA without it (in words) [3]: increased degradation of the HA
effect of presence of corticosteroid on HA viscosity vs HA without it (in words) [4]: increased degradation of the HA
effect of presence of corticosteroid on HA viscosity vs HA without it (in words) [5]: increased degradation of the HA
effect of presence of corticosteroid on HA viscosity vs HA without it (in words) [6]: increased degradation of the HA
effect of presence of corticosteroid on HA viscosity vs HA without it (in words) [7]: increased decrease in the viscosity of the HA
effect of presence of corticosteroid on HA viscosity vs same formulation without it (in words) [8]: decreased more rapidly over time
effect of presence of corticosteroid on HA viscosity vs HA without it (in words) [9]: increased decrease in the viscosity of the HA

CC(C)(C)CC(=O)OCC(=O)[C@@]12OC(C)(C)O[C@@H]1C[C@H]1[C@@H]3CCC4=CC(=O)C=C[C@]4(C)[C@@]3(F)[C@@H](O)C[C@@]12C [triamcinolone hexacetonide, Triamcinolone hexacetonide]
effect of presence of corticosteroid on HA viscosity vs HA without it (in words) [10]: decrease in the viscosity of the HA

Source: patent US20150352142A1, “STABILIZED COMPOSITIONS COMPRISING HYALURONIC ACID” (Carbylan Therapeutics, Inc., priority 2013, published 2015)
